Organism: Rattus norvegicus
Assay: DrugMatrix - Regimen: Daily Repeat
Assay type: toxicity, organism-based, Sprague-Dawley
Set-up: regimen Daily Repeat, gender Male, age 6-8 weeks
Settings: in vivo, po, route oral GAVAGE, […]; for ABSOLUTE BASOPHIL / BASOPHIL / NUCLEATED RED BLOOD CELLS / ABSOLUTE EOSINOPHIL / ABSOLUTE LYMPHOCYTE / ABSOLUTE MONOCYTE / ABSOLUTE SEGMENTED NEUTROPHIL / EOSINOPHIL / ERYTHROCYTE COUNT / HEMATOCRIT / HEMOGLOBIN / LEUKOCYTE COUNT / LYMPHOCYTE / MEAN CORPUSCULAR HEMOGLOBIN / MEAN CORPUSCULAR HEMOGLOBIN CONCENTRATION / MEAN CORPUSCULAR VOLUME / MONOCYTE / NEUTROPHIL / PLATELET COUNT: tissue Blood
[1] = 0 mg/kg, 72 h, dose level Control, time 3 day
[2] = 0 mg/kg, 120 h, dose level Control, time 5 day
[3] = 52 mg/kg, 72 h, dose level Low, time 3 day
[4] = 52 mg/kg, 72 h, tissue Plasma, dose level Low, time 3 day
[5] = 52 mg/kg, 120 h, dose level Low, time 5 day
[6] = 52 mg/kg, 120 h, tissue Plasma, dose level Low, time 5 day

Clc1ccccc1C(c1ccccc1)(c1ccccc1)n1ccnc1 [CLOTRIMAZOLE]
ABSOLUTE BASOPHIL [1]: 0 CELLS/uL | BASOPHIL [1]: 0% | NUCLEATED RED BLOOD CELLS [1]: 0 /100WBC | ABSOLUTE BASOPHIL [2]: 0 CELLS/uL | BASOPHIL [2]: 0% | ABSOLUTE BASOPHIL [3]: 0 CELLS/uL | ABSOLUTE EOSINOPHIL [3]: 0 CELLS/uL | ABSOLUTE LYMPHOCYTE [3]: 7378.33 CELLS/uL | ABSOLUTE MONOCYTE [3]: 76.67 CELLS/uL | ABSOLUTE SEGMENTED NEUTROPHIL [3]: 611.67 CELLS/uL | BASOPHIL [3]: 0% | EOSINOPHIL [3]: 0% | ERYTHROCYTE COUNT [3]: 4.96 x10E6/uL | HEMATOCRIT [3]: 32.7% | HEMOGLOBIN [3]: 12.97 G/DL | LEUKOCYTE COUNT [3]: 8.07 x10E3/uL | LYMPHOCYTE [3]: 91.33% | MEAN CORPUSCULAR HEMOGLOBIN [3]: 26.17 pg | MEAN CORPUSCULAR HEMOGLOBIN CONCENTRATION [3]: 39.67 G/DL | MEAN CORPUSCULAR VOLUME [3]: 65.97 fL | MONOCYTE [3]: 1% | NEUTROPHIL [3]: 7.67% | NUCLEATED RED BLOOD CELLS [3]: 0 /100WBC | PLATELET COUNT [3]: 996.33 x10E3/uL | ALANINE AMINOTRANSFERASE [4]: 116 u/L | ALBUMIN [4]: 3.73 G/DL | ALKALINE PHOSPHATASE [4]: 475.33 u/L | ASPARTATE AMINOTRANSFERASE [4]: 102.67 u/L | BLOOD UREA NITROGEN [4]: 13.33 mg/dL | CARBON DIOXIDE [4]: 38 mmol/L | CHLORIDE [4]: 99 MEQ/L | CHOLESTEROL [4]: 69.33 mg/dL | CREATINE PHOSPHOKINASE [4]: 256 u/L | CREATININE [4]: 0.12 mg/dL | GLUCOSE [4]: 158 mg/dL | LACTATE DEHYDROGENASE [4]: 99 u/L | LIPASE [4]: 11 u/L | PHOSPHORUS [4]: 9.1 mg/dL | POTASSIUM [4]: 5.46 MEQ/L | SODIUM [4]: 142.67 MEQ/L | TOTAL BILIRUBIN [4]: 0.17 mg/dL | TOTAL PROTEIN [4]: 5.43 G/DL | URIC ACID [4]: 0.57 mg/dL | ABSOLUTE BASOPHIL [5]: 0 CELLS/uL | ABSOLUTE EOSINOPHIL [5]: 0 CELLS/uL | ABSOLUTE LYMPHOCYTE [5]: 8088.33 CELLS/uL | ABSOLUTE MONOCYTE [5]: 127.33 CELLS/uL | ABSOLUTE SEGMENTED NEUTROPHIL [5]: 651 CELLS/uL | BASOPHIL [5]: 0% | EOSINOPHIL [5]: 0% | ERYTHROCYTE COUNT [5]: 5.31 x10E6/uL | HEMATOCRIT [5]: 34.07% | HEMOGLOBIN [5]: 13.3 G/DL | LEUKOCYTE COUNT [5]: 8.87 x10E3/uL | LYMPHOCYTE [5]: 91.67% | MEAN CORPUSCULAR HEMOGLOBIN [5]: 25.1 pg | MEAN CORPUSCULAR HEMOGLOBIN CONCENTRATION [5]: 39.1 G/DL | MEAN CORPUSCULAR VOLUME [5]: 64.2 fL | MONOCYTE [5]: 1.33% | NEUTROPHIL [5]: 7% | NUCLEATED RED BLOOD CELLS [5]: 0 /100WBC | PLATELET COUNT [5]: 1063.67 x10E3/uL | ALANINE AMINOTRANSFERASE [6]: 68 u/L | ALBUMIN [6]: 3.9 G/DL | ALKALINE PHOSPHATASE [6]: 421.33 u/L | ASPARTATE AMINOTRANSFERASE [6]: 83.33 u/L | BLOOD UREA NITROGEN [6]: 13.33 mg/dL | CARBON DIOXIDE [6]: 27.33 mmol/L | CHLORIDE [6]: 104.33 MEQ/L | CHOLESTEROL [6]: 79.67 mg/dL | CREATINE PHOSPHOKINASE [6]: 203.67 u/L | CREATININE [6]: 0.34 mg/dL | GLUCOSE [6]: 183 mg/dL | LACTATE DEHYDROGENASE [6]: 97.67 u/L | LIPASE [6]: 12.67 u/L | PHOSPHORUS [6]: 12.3 mg/dL | POTASSIUM [6]: 5.8 MEQ/L | SODIUM [6]: 144.6 MEQ/L
